What all share (type): in vivo
The test system of one assay is Bemisia Argentifolii. Nature of the assay: Silverleaf whitefly (Bemisia argentifolii) cotton plant spray test. As to conditions: 72 h, sprayed cotton plants, whitefly adults, 3 days after treatment, read-out: mortality in comparison with untreated controls. The source says:
The active compounds were formulated in cyclohexanone as a 10,000 ppm solution supplied in tubes. The tubes were inserted into an automated electrostatic sprayer equipped with an atomizing nozzle and they served as stock solutions for which lower dilutions were made in 50% acetone:50% water (v/v). A nonionic surfactant (Kinetic®) was included in the solution at a volume of 0.01% (v/v).
Cotton plants at the cotyledon stage (one plant per pot) were sprayed by an automated electrostatic plant sprayer equipped with an atomizing spray nozzle. The plants were dried in the sprayer fume hood and then removed from the sprayer. Each pot was placed into a plastic cup and about 10 to 12 whitefly adults (approximately 3-5 days old) were introduced. The insects were collected using an aspirator and a nontoxic Tygon® tubing connected to a barrier pipette tip. The tip, containing the collected insects, were gently inserted into the soil containing the treated plant, allowing insects to crawl out of the tip to reach the foliage for feeding. Cups were covered with a reusable screened lid. Test plants were maintained in a growth room at about 25° C. and about 20-40% relative humidity for 3 days, avoiding direct exposure to fluorescent light (24 hour photoperiod) to prevent trapping of heat inside the cup. Mortality was assessed 3 days after treatment, compared to untreated control plants.

The next assay has as its system Megoura viciae. Kind of assay: Vetch aphid (Megoura viciae) leaf disk test, contact or systemic. As to conditions: foliar, 120 h, sprayed broad bean leaf disks, adult aphids, 5 days, read-out: mortality in comparison with untreated controls. The procedure:
For evaluating control of vetch aphid (Megoura viciae) through contact or systemic means the test unit consisted of 24-well-microtiter plates containing broad bean leaf disks.
The compounds were formulated using a solution containing 75% v/v water and 25% v/v DMSO. Different concentrations of formulated compounds were sprayed onto the leaf disks at 2.5 μl, using a custom built micro atomizer, at two replications.
After application, the leaf disks were air-dried and 5-8 adult aphids were placed on the leaf disks inside the microtiter plate wells. The aphids were then allowed to suck on the treated leaf disks and were incubated at about 23±1° C. and about 50±5% relative humidity for 5 days. Aphid mortality and fecundity were then visually assessed.

A further assay concerns Aphis Craccivora. Kind of assay: Cowpea aphid (Aphis craccivora) potted cowpea plant spray test. As to conditions: sprayed potted cowpea plants, population reduction assessed after 24, 72 and 120 hours, read-out: mortality in comparison with untreated controls. The procedure: The active compound was dissolved at the desired concentration in a mixture of 1:1 (vol:vol) distilled water:acetone. The test solution was prepared at the day of use.
Potted cowpea plants colonized with approximately 100-150 aphids of various stages were sprayed after the pest population has been recorded. Population reduction was assessed after 24, 72, and 120 hours.

In the next assay the test system is Myzus persicae. Nature of the assay: Green peach aphid (Myzus persicae) artificial diet test, systemic. The note with it: 72 h, in liquid artificial aphid diet, adult aphids, 3 days, read-out: mortality in comparison with untreated controls. The source says: For evaluating control of green peach aphid (Myzus persicae) through systemic means the test unit consisted of 96-well-microtiter plates containing liquid artificial diet under an artificial membrane.
The compounds were formulated using a solution containing 75% v/v water and 25% v/v DMSO. Different concentrations of formulated compounds were pipetted into the aphid diet, using a custom built pipetter, at two replications.
After application, 5-8 adult aphids were placed on the artificial membrane inside the microtiter plate wells. The aphids were then allowed to suck on the treated aphid diet and were incubated at about 23±1° C. and about 50±5% relative humidity for 3 days. Aphid mortality and fecundity was then visually assessed.

A further assay concerns Heliothis virescens. Nature of the assay: Tobacco budworm (Heliothis virescens) insect diet egg/larval test. As to conditions: 120 h, sprayed onto insect diet with eggs, egg and larval mortality, 5 days, read-out: mortality in comparison with untreated controls. The procedure:
For evaluating control of tobacco budworm (Heliothis virescens) the test unit consists of 96-well-microtiter plates containing an insect diet and 15-25 H. virescens eggs.
The compounds were formulated using a solution containing 75% v/v water and 25% v/v DMSO. Different concentrations of formulated compounds were sprayed onto the insect diet at 10 μl, using a custom built micro atomizer, at two replications.
After application, microtiter plates were incubated at about 28±1° C. and about 80±5% relative humidity for 5 days. Egg and larval mortality was then visually assessed.

Take `CCN(C1=NCCS1)c1cnc(-c2cccnc2)s1` [C.1, N-(4,5-dihydrothiazol-2-yl)-N-ethyl-2-(3-pyridyl)thiazol-5-amine]: in the assay on Bemisia Argentifolii, the mortality (usually the percentage killed) at 300 ppm is no less than 75%. In addition, the mortality at 800 ppm in the assay with Megoura viciae and in the assay on Myzus persicae was no less than 75% in each case. The mortality at 100 ppm in the assay with Aphis Craccivora was no less than 75%.
Take `[O-][S+](c1ncccn1)c1cnc(-c2cccnc2)s1` (centres unmarked) [C.11, 2-(3-Pyridyl)-5-pyrimidin-2-ylsulfinyl-thiazole]: the mortality at 800 ppm in the assay with Heliothis virescens was no less than 75%.
As to `CCN(C1=NCCS1)c1sc(-c2cccnc2)nc1Cl` [C.3, 4-chloro-N-(4,5-dihydrothiazol-2-yl)-N-ethyl-2-(3-pyridyl)thiazol-5-amine], the mortality at 800 ppm in the assay on Megoura viciae was no less than 75%. Also, the mortality at 100 ppm in the assay with Aphis Craccivora was no less than 75%.
As for `CCN(C1=NCCO1)c1sc(-c2cccnc2)nc1Cl` [C.4, N-[4-chloro-2-(3-pyridyl)thiazol-5-yl]-N-ethyl-4,5-dihydrooxazol-2-amine], in the assay with Bemisia Argentifolii, the mortality at 300 ppm was no less than 75%. Moreover, the mortality at 800 ppm in the assay with Megoura viciae and with Myzus persicae was no less than 75% each time. The mortality at 100 ppm in the assay on Aphis Craccivora is no less than 75%.

Values taken from US20150166528A1, “Pesticidal methods using substituted 3-pyridyl thiazole compounds and derivatives for combating animal pests” (BASF SE, priority 2012, published 2015).
